Measurements: ChEMBL document CHEMBL1147799, “An integrated in silico 3D model-driven discovery of a novel, potent, and selective amidosulfonamide 5-HT1A agonist (PRX-00023) for the treatment of anxiety and depression” (J Med Chem, 2006)

Assays:
[1] = molecular target: T1, 5-hydroxytryptamine receptor 1A (Homo sapiens, UniProt P08908); assay: Displacement of [3H]8-OH-DPAT from human 5HT1A receptor in HEK293 cells
T1 sequence (P08908 whole entry): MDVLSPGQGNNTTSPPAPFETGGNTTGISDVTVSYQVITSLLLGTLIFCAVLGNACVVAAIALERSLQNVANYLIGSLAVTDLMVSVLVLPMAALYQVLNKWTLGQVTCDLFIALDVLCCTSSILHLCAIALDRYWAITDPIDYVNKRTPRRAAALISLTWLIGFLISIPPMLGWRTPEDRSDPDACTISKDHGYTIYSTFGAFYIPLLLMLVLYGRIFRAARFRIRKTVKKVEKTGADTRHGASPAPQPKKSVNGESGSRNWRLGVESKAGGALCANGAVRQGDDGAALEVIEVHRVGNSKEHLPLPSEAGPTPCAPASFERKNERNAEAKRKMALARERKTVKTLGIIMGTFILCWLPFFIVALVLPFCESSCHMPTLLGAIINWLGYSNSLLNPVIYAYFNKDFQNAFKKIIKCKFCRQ

[2] = molecular target: T2, Adrenergic receptor alpha-1 (Rattus norvegicus, UniProt P15823+P23944+P43140); assay: Displacement of [3H]prazosin from adrenergic alpha-1 receptor in rat cerebral cortex cells; type: cell-based
T2 sequence (P15823 whole entry): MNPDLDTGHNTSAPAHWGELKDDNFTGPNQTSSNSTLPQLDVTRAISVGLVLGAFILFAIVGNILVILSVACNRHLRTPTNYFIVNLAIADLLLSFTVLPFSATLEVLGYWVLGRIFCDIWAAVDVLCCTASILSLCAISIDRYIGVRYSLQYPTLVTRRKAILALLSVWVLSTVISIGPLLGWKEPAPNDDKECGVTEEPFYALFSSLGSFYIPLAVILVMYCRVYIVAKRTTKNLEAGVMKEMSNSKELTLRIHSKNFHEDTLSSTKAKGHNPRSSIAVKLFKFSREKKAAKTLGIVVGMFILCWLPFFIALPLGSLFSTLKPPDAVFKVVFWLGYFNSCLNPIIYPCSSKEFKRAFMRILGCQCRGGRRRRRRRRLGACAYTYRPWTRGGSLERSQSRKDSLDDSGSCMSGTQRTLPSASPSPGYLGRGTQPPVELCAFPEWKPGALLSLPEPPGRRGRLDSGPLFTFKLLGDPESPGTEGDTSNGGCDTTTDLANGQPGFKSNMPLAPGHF
T2 sequence (P23944 whole entry): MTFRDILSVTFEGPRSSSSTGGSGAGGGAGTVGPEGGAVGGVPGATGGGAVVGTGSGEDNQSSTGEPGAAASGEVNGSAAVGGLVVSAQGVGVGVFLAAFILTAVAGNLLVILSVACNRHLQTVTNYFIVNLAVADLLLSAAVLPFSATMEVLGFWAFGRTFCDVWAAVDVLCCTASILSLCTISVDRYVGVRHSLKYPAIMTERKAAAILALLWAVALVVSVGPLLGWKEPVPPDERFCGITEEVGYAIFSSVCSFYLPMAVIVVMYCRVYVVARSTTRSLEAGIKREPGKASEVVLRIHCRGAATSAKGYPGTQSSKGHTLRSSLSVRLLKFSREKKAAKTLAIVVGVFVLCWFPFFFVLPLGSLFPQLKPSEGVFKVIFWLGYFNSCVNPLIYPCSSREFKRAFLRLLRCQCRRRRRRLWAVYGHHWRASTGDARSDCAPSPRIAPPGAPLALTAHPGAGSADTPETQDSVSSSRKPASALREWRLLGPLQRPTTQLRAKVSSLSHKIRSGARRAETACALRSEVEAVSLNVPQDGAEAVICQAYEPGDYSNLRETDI
T2 sequence (P43140 whole entry): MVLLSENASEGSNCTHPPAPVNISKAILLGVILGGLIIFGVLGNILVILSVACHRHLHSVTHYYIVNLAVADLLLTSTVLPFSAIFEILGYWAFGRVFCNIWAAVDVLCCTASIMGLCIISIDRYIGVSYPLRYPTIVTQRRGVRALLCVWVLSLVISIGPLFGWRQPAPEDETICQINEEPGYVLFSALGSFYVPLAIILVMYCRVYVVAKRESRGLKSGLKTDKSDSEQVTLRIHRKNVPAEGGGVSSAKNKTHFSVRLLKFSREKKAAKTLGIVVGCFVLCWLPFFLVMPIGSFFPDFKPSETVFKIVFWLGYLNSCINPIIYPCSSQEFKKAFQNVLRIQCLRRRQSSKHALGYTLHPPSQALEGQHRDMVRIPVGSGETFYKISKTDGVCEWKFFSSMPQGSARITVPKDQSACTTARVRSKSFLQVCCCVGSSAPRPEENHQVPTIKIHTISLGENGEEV

[3] = Selectivity for adrenergic alpha-1 receptor over 5HT1A receptor
[4] = Elimination half life in human; type: ADME, organism-based; conditions: in vivo
[5] = molecular target: T3, Alpha-2A adrenergic receptor (Rattus norvegicus) (UniProt P22909); assay: Displacement of [3H]RX 821002 from Adrenergic alpha-2a receptor in rat cerebral cortex cells at 1 uM; type: cell-based
T3 sequence (whole entry): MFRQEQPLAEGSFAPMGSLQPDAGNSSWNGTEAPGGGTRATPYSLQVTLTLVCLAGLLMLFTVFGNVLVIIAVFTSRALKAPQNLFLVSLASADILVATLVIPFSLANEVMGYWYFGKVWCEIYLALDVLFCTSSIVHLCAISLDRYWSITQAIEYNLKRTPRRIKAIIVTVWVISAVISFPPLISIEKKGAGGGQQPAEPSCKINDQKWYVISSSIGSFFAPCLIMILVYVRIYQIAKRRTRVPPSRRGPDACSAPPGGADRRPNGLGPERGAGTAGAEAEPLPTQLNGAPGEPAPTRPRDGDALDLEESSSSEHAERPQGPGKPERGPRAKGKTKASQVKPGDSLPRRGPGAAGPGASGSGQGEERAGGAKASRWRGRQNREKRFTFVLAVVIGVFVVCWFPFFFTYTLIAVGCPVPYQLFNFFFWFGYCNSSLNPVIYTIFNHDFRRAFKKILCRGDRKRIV

[6] = molecular target: Adrenergic receptor alpha-1 (Rattus norvegicus) (UniProt P15823+P23944+P43140); assay: Displacement of [3H]prazosin from Adrenergic alpha-1 receptor in rat cerebral cortex cells at 1 uM; type: cell-based
D(2) dopamine receptor = D(2) dopamine receptor (Homo sapiens, UniProt P14416); assay: Binding affinity to D2 receptor by radioligand binding assay
Sequence of D(2) dopamine receptor (P14416 whole entry): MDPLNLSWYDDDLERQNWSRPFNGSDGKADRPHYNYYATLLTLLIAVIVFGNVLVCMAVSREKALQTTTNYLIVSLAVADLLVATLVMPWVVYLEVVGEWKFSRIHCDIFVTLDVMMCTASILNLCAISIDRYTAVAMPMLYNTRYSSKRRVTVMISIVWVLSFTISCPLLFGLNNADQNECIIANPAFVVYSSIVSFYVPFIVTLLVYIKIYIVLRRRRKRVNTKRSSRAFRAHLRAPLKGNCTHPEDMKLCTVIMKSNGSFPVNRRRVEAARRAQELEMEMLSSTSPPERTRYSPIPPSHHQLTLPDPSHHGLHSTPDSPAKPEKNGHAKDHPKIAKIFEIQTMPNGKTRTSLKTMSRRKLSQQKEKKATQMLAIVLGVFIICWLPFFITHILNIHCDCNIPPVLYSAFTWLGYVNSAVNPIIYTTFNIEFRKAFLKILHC

[7] = molecular target: T4, 5-hydroxytryptamine receptor 1A (Homo sapiens) (UniProt P08908); assay: Activity against 5HT1A receptor relative to 5-HT by Gi-[35S]GTP-gamma-S binding assay; type: functional
T4 sequence (whole entry): T1 sequence (P08908 whole entry)

[8] = Half life in Sprague-Dawley rat at 3 mg/kg, po; type: ADME, organism-based; design: dose 3 mg/kg, route oral; conditions: in vivo

Activity [5] [%]	Activity [6] [%]	SMILES	also measured
–	–	O=C1CCC(=O)N1C[C@H]1CC[C@H]2CN(c3ncccn3)CCN2C1 [SUNEPITRON]	Ki [1]: 92 nM; Ki [2]: 35 nM; Ratio Ki [3]: 0.4; half-life [4]: 2 h
21	51	Cc1ccc(S(=O)(=O)NCCCCN2CCN(c3cccc(NS(C)(=O)=O)c3)CC2)cc1	–
14	47	CCS(=O)(=O)Nc1cccc(N2CCN(CCCCNS(=O)(=O)c3ccc(C)cc3)CC2)c1	–
< 10	< 10	CC(=O)Nc1cccc(N2CCN(CCCCNS(=O)(=O)C3CCCCC3)CC2)c1	–
–	–	CC1(C)CC(=O)N(CCCCN2CCN(c3ncccn3)CC2)C(=O)C1 [GEPIRONE]	Ki (D(2) dopamine receptor): 58 nM; half-life [4]: 6 h; Activity [7]: 80%
90	98	Cc1ccc(S(=O)(=O)NCCCCN2CCN(c3ccccc3)CC2)cc1	–
12	47	Cc1ccc(S(=O)(=O)NCCCCN2CCN(c3cccc(NS(=O)(=O)C(C)C)c3)CC2)cc1	Ki [1]: 47 nM
13	< 10	CC(=O)Nc1cccc(N2CCN(CC3CCN(S(=O)(=O)CC4CCCCC4)CC3)CC2)c1	half-life [8]: 0.75 h
11	0	Cc1ccc(S(=O)(=O)NCCCCN2CCN(c3cccc(NC(=O)C(C)(C)C)c3)CC2)cc1	–
< 10	10	O=C(Nc1cccc(N2CCN(CCCCNS(=O)(=O)CC3CCCCC3)CC2)c1)C1CC1	–
< 10	15	Cc1ccc(S(=O)(=O)NCCCCN2CCN(c3cccc(NC(=O)C(C)C)c3)CC2)cc1	Ki [1]: 78 nM
< 10	< 10	CC(=O)Nc1cccc(N2CCN(CCCCNS(=O)(=O)C(C)C)CC2)c1	–
